# Experimental data published in patent publication US20090035345A1, “Nuclear Receptors Agonists for Treatment of Atherosclerosis and/or Related Cardiovascular Disease” (ACADEMISCH MEDISCH CENTRUM, BUREAU, priority 2005, published 2009).
# Entries after “also recorded” stand apart in the source; their conditions may differ.
# How the values were obtained:
# human SMCs [1] = assay: Apoptosis of SMCs, Hoechst staining of nuclei; type: cell-based; settings: human, 24 h
# Method: (§1) Human SMCs were explanted from umbilical cord arteries. Cells were cultured in DMEM (Invitrogen Life Technology, Breda, The Netherlands) with 10% (v/v) fetal bovine serum (FBS) with penicillin and streptomycin (Invitrogen). Cells were used at passages five to seven. […] To determine cellular viability, cells were washed with PBS and subsequently incubated in medium in the presence of 0.5-mg/ml 3-(4,5-dimethylthiazol-2-yl)-2,5-diphenyltetrazolium bromide (MTT; Sigma Diagnostics, St. Louis). After two hours, medium was discarded, formazan crystals were dissolved in isopropanol and optical density was measured at 590 nm. Apoptosis was induced by incubating cells for 24 hours in medium with 0.25 μM staurosporine (Sigma). Subsequently, SMCs were fixed, stained with Hoechst dye and the relative number of apoptotic nuclei was determined.
# [2] = In vitro release from drug-eluting poly(ε-caprolactone) cuffs; type: physicochemical; settings: 0.5% and 1% cuffs, 4-week period
# Method: Briefly, 6-MP was dissolved at different concentrations in blended, molten drug-polymer mix and cuffs were designed to fit around the femoral artery of mice. Drug-eluting cuffs are shaped as longitudinally cut cylinders with an internal diameter of 0.5 mm, an external diameter of 1.0 mm, a length of 2.0 mm and a weight of approximately 5.0 mg. Drug-eluting cuffs were loaded with 0.5% (w/w) and 1% (w/w) 6-MP and the in vitro release profiles were determined for a 4-week period, as described before (n=5/group).
# [3] = test system: saphenous vein smooth muscle cells; assay: Cyclic stretch-induced DNA synthesis ([3H]-thymidine incorporation) in venous SMCs; type: cell-based, human
# Method: To study stretch-induced responses, smooth muscle cells were seeded in 6-well plates containing collagen Icoated flexible membranes (BioFlex® culture plates, Dunn Labortechnik GmbH, Asbach, Germany) and were stretched in the Flexercell FX3000 apparatus (Dunn Labortechnik) for 1, 2, 4, 6, or 24 h at 10% stretch at 0.5 Hz or served as control (without stretch). Silicone-based lubricant was applied to prevent friction between the membrane and loading post.
# Smooth muscle cells were seeded in 6-well stretch plates and when wells were confluent, smooth muscle cells were made quiescent for 16 h in medium containing 0.5% (v/v) FBS.
# The plates were transferred into the Loading Station™ and stretched for 24 h. Control plates, without stretch, were cultured under identical conditions. Thereafter, cells were labeled for 4 h with 0.5 microCi/mL [methyl-^3H]-thymidine (Amersham Biosciences).
# Incorporated radioactivity was precipitated for 30 min at 4° C. with 10% (wt/v) trichloroacetic acid, washed twice with 5% (wt/v) trichloroacetic acid and dissolved in 0.5N NaOH. [^3H]-thymidine was measured by liquid scintillation counting.
# When cells were infected with mock- or TR3-containing adenovirus (3×10^8 plaque-forming units) for 2 h, the cells were allowed to recover for 24 h in complete medium before they were made quiescent. Agonist treatment (6-MP) was initiated 1 h prior to stretch with 0, 1, 10, 25 microM C-DIM (stock at 40 mM in DMSO).
# The following small interfering RNA (siRNA) sequences were used: TR3 siRNA, 5′-CAG UCC AGC CAU GCU CCU C dTdT-3′, and mutated control siRNA, 5′-CAG ACG AGC CUU GCU CGU C dTdT-3′ (Ambion Inc., UK). Per Flexerplate-well 1 μg of siRNA was transfected into 5×10^5 SMCs using Nucleofector reagent for SMCs (Amaxa GmbH, Cologne, Germany) as per the manufacturer's recommendations and subsequently the cells were placed in the stretch plates and were treated as described above.
# human SMCs [4] = assay: DNA synthesis assay ([3H]thymidine incorporation) in FBS-stimulated cultured SMCs; type: cell-based
# Method: as §1
# SMCs were seeded in 24-well plates at 1−4×10^4 cells per well and reached 60% to 70% confluency after 24 hours. SMCs were made quiescent by incubation for 24 hours in FBS-free medium. 6-MP was dissolved in dimethylsulfoxide and applied one hour before FBS stimulation. SMCs were stimulated for 24 hours with 10% (v/v) FBS and subsequently cells were labeled for 18 hours with 0.25 μCi/well [methyl-3H]thymidine (Amersham Biosciences, Buckinghamshire, UK). Incorporated radioactivity was precipitated for 30 min at 4° C. with 10% (w/v) trichloroacetic acid, washed twice with 5% (w/v) trichloroacetic acid, and dissolved in 0.5 N NaOH (0.5 mL per well). Incorporated [^3H]thymidine was measured by liquid-scintillation counting.
# (§2) The following small interfering (si)RNA sequences were used: Nur77 siRNA, 5′-CAG UCC AGC CAU GCU CCU C dTdT-3′, as described previously^20, and control siRNA, 5′-CAG ACG AGC CUU GCU CGU C dTdT-3′ (Ambion Inc., Austin, Tex.). Five μg of siRNA was transfected into 0.5−1×10^6 SMCs, using Nucleofector reagent for SMCs (Amaxa) as per the manufacturer's recommendations. Total mRNA was isolated five days after transfection, using the absolutely mRNA miniprep kit (Stratagene, La Jolla, Calif.). Subsequent cDNA synthesis was performed using the iScript cDNA synthesis kit (Biorad, Hercules, Calif.). Real-time polymerase chain reaction (PCR) was performed using SYBR green mix (Biorad) in the MyIQ System (Biorad). Primers for Nur77 were as follows: (forward) 5′-[…]-3′ and (reverse) 5′-[…]-3′. As a control for equal amount of first strand cDNA in different samples we corrected for Ribosomal Phosphoprotein (P0) mRNA levels, which were determined with the following primers (forward) 5′-[…]-3′ and (reverse) 5′-[…]-3′.
# as §2, with “iscript” for “iScript”
compound,measurement,setting,value
"Sc1ncnc2nc[nH]c12 [6-MP, 6-mercaptopurine]",apoptosis (apoptotic nuclei),human SMCs [1],3%±2%
same,in vitro release profile,[2],sustained and dose-dependent release
same,effect on stretch-induced DNA synthesis after TR3 knockdown,[3]; venous SMCs transfected with TR3-siRNA,completely abolishes the effect of 6-MP; also recorded: no longer inhibits DNA synthesis
same,stretch-induced DNA synthesis,"[3]; venous SMCs, 24 h cyclic stretch, 25 μM 6-MP",completely inhibited
same,stretch-induced DNA synthesis ([3H]-thymidine incorporation),"[3]; venous SMCs, 24 h cyclic stretch, 6-MP at various concentrations",reduced stretch-mediated proliferation in a dose-dependent manner
same,DNA synthesis in SMCs,human SMCs [4]; 25 μM or 50 μM,reduced
same,inhibition of DNA synthesis,human SMCs [4]; SMCs transfected with Nur77 (TR3)-specific siRNA,41%
same,inhibition of DNA synthesis,human SMCs [4]; SMCs transfected with control siRNA,61%
same,DNA synthesis in SMCs,"human SMCs [4]; increasing concentrations, 10% FBS",inhibits DNA synthesis
